Experimental data as given in patent US11117885B2, “Compounds having estrogen receptor alpha degradation activity and uses thereof” (ACCUTAR BIOTECHNOLOGY INC., priority 2018, dated 2021).

Target: T1, ERα (Homo sapiens, UniProt P03372)
T1 sequence (P03372 1-595): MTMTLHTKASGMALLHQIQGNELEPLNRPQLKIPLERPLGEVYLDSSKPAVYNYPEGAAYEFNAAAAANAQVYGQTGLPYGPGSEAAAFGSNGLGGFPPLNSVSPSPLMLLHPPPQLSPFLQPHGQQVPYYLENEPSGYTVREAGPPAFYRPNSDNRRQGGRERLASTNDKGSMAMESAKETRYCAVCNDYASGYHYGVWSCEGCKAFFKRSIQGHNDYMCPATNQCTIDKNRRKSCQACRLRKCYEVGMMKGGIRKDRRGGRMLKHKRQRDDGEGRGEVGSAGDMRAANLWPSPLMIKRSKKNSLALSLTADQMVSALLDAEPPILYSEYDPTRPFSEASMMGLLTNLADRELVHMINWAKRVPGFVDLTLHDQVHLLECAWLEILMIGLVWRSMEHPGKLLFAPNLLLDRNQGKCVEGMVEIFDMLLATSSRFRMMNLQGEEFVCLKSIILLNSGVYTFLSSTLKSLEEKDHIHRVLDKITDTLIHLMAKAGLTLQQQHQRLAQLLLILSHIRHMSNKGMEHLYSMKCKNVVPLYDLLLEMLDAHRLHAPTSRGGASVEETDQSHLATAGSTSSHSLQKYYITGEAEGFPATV
Test: ERα degradative activity in T47D cells (western blot, densitometry)
Assay type: cell-based
Design: endogenous in cells; host or cells: T47D
Details: T47D cell line; concentration at which 50% of the target protein (ERα) is degraded
Description: T47D cells were plated in 24-well plates at 1.5×10^5 cells/well in the RPMI growth medium containing 10% FBS and 1× Penicillin Streptomycin, and then incubated at 37° C. overnight. The following day, the test compound was administered to the cells by using 1000× compound stock solution prepared in DMSO at various concentrations. After administration of the compound, the cells were then incubated at 37 C for various period of treatment time, e.g., as indicated in the figures.
Upon completion, the cells were washed with PBS and protein was collected in Laemmli sample buffer (1×; VWR International). Protein was isolated from cell lysate (approximately 25 μg) by SDS-PAGE and transferred to nitrocellulose membranes. Non-specific binding was blocked by incubation with blocking buffer (5% milk in Tris-buffered saline with 0.1% Tween 20 (“TBS-T”)) at rt for 60 minutes.
The membrane was then incubated with primary antibodies (mouse anti-ERα (1:500, Santa Cruz), mouse anti-GAPDH (1:5,000, Santa Cruz), or mouse anti-actin (1:4,000, Santa Cruz)) overnight at 4° C., followed by washing (3 times) with TBS-T, and then incubation with horseradish peroxidase-conjugated rabbit anti-mouse IgG (1:5,000) for 60 minutes. After the TBS-T washes, blots were developed with an enhanced chemiluminescence kit (ThermoFisher Scientific) and the bands were imaged and quantified by densitometry (Bio-Rad).
The DC50 values (i.e., the concentration of test compound at which 50% of the target protein is degraded) was calculated for various compounds of the present disclosure and are shown in the Table 3, below. A corresponds to a DC50 value less than or equal to 1.5 μM; B corresponds to a DC50 value greater than 1.5 μM and less than 3 μM; and C corresponds to a DC50 value greater than 3 μM.

DC50	SMILES
> 3 µM	CC/C(=C(\c1ccccc1)c1ccc(OCCN(C)C(=O)CCOCCNc2cccc3c2C(=O)N(C2CCC(=O)NC2=O)C3=O)cc1)c1ccccc1 (stereo not shown) [Compound 8, (Z)-3-(2-((2-(2,6-dioxopiperidin-3-yl)-1,3-dioxoisoindolin-4-yl)amino)ethoxy)-N-(2-(4-(1,2-diphenylbut-1-en-1-yl)phenoxy)ethyl)-N-methylpropanamide]
> 3 µM	CC/C(=C(\c1ccccc1)c1ccc(OCCN(C)C(=O)CCOCCOCCNc2cccc3c2C(=O)N(C2CCC(=O)NC2=O)C3=O)cc1)c1ccccc1 (stereo not shown) [Compound 15, (Z)-3-(2-(2-((2-(2,6-Dioxopiperidin-3-yl)-1,3-dioxoisoindolin-4-yl)amino)ethoxy)ethoxy)-N-(2-(4-(1,2-diphenylbut-1-en-1-yl)phenoxy)ethyl)-N-methylpropanamide]
≤ 1.5 µM	CC/C(=C(\c1ccccc1)c1ccc(OCCN(C)C(=O)CCOCCOCCOCCOCCNc2cccc3c2C(=O)N(C2CCC(=O)NC2=O)C3=O)cc1)c1ccccc1 (stereo not shown) [Compound 54, (Z)-1-((2-(2,6-dioxopiperidin-3-yl)-1,3-dioxoisoindolin-4-yl)amino)-N-(2-(4-(1,2-diphenylbut-1-en-1-yl)phenoxy)ethyl)-N-methyl-3,6,9,12-tetraoxapentadecan-15-amide]
≤ 1.5 µM	CC/C(=C(\c1ccccc1)c1ccc(OCCN(C)C(=O)CCNc2cccc3c2C(=O)N(C2CCC(=O)NC2=O)C3=O)cc1)c1ccccc1 (stereo not shown) [Compound 89, (Z)-3-((2-(2,6-dioxopiperidin-3-yl)-1,3-dioxoisoindolin-4-yl)amino)-N-(2-(4-(1,2-diphenylbut-1-en-1-yl)phenoxy)ethyl)-N-methylpropanamide]

The remaining lines, values behind:

SMILES	DC50
CC/C(=C(\c1ccccc1)c1ccc(OCCN(C)C(=O)CCOCCOCCOCCOCCOCCNc2cccc3c2C(=O)N(C2CCC(=O)NC2=O)C3=O)cc1)c1ccccc1 (stereo not shown) [Compound 64, (Z)-1-((2-(2,6-dioxopiperidin-3-yl)-1,3-dioxoisoindolin-4-yl)amino)-N-(2-(4-(1,2-diphenylbut-1-en-1-yl)phenoxy)ethyl)-N-methyl-3,6,9,12,15-pentaoxaoctadecan-18-amide]	≤ 1.5 µM
CC/C(=C(\c1ccccc1)c1ccc(OCCN(C)C(=O)CNc2cccc3c2C(=O)N(C2CCC(=O)NC2=O)C3=O)cc1)c1ccccc1 (stereo not shown) [Compound 88, (Z)-2-((2-(2,6-dioxopiperidin-3-yl)-1,3-dioxoisoindolin-4-yl)amino)-N-(2-(4-(1,2-diphenylbut-1-en-1-yl)phenoxy)ethyl)-N-methylacetamide]	> 3 µM
CC/C(=C(\c1ccccc1)c1ccc(OCCN(C)C(=O)CCCNc2cccc3c2C(=O)N(C2CCC(=O)NC2=O)C3=O)cc1)c1ccccc1 (stereo not shown) [Compound 108, (Z)-4-((2-(2,6-dioxopiperidin-3-yl)-1,3-dioxoisoindolin-4-yl)amino)-N-(2-(4-(1,2-diphenylbut-1-en-1-yl)phenoxy)ethyl)-N-methylbutanamide]	≤ 1.5 µM
CC/C(=C(\c1ccccc1)c1ccc(OCCN(C)C(=O)CCCCCNc2cccc3c2C(=O)N(C2CCC(=O)NC2=O)C3=O)cc1)c1ccccc1 (stereo not shown) [Compound 120, (Z)-6-((2-(2,6-dioxopiperidin-3-yl)-1,3-dioxoisoindolin-4-yl)amino)-N-(2-(4-(1,2-diphenylbut-1-en-1-yl)phenoxy)ethyl)-N-methylhexanamide]	≤ 1.5 µM
CC/C(=C(\c1ccccc1)c1ccc(OCCN(C)C(=O)CCCCCCNc2cccc3c2C(=O)N(C2CCC(=O)NC2=O)C3=O)cc1)c1ccccc1 (stereo not shown) [Compound 126, (Z)-7-((2-(2,6-dioxopiperidin-3-yl)-1,3-dioxoisoindolin-4-yl)amino)-N-(2-(4-(1,2-diphenylbut-1-en-1-yl)phenoxy)ethyl)-N-methylheptanamide]	1.5 to 3 µM
CC/C(=C(\c1ccccc1)c1ccc(OCCN(C)C(=O)CCCCCCCNc2cccc3c2C(=O)N(C2CCC(=O)NC2=O)C3=O)cc1)c1ccccc1 (stereo not shown) [Compound 143, (Z)-8-((2-(2,6-dioxopiperidin-3-yl)-1,3-dioxoisoindolin-4-yl)amino)-N-(2-(4-(1,2-diphenylbut-1-en-1-yl)phenoxy)ethyl)-N-methyloctanamide]	1.5 to 3 µM
